Reference: paper PMC9972151, “Phase I study of plitidepsin in combination with bortezomib and dexamethasone in patients with relapsed/refractory multiple myeloma” (Cancer Medicine, 2022)
Several values for one entry are separate records, joined by “and”; a condition that tells them apart may be missing. Equal entries are not always repeated. Where two headings read alike, the source gives them in different places. Numbered stars: 1 amine (or outer) side, 2 acyl side, 3 side chain; on linkers, the order of the positions; unused ones are H or OH. Bridge positions count the residues as written; N and C are the ends. Square brackets hold non-standard residues; d marks the D form. Peptide text beside a SMILES is read from it. * marks the point of attachment. X1 = CC[C@H](C)[C@@H](N[*:1])[C@@H](O)CC(=O)O[C@H](C(=O)[C@H](C)C(=O)[*:2])C(C)C; NMeY = CN[C@@H](Cc1ccc(O)cc1)C(=O)O; dNMeL = CN[C@H](CC(C)C)C(=O)O; Pyruvoyl = CC(=O)C(=O)*

Columns and labels:
MM [1] = test system: MM; design: method as in PMID 23950178, PMID 28642620, PMID 24429336, PMID 28847998, PMID 27091875; conditions: named drug in a BTZ and DXM-containing combination; cited from earlier work
[2] = Plitidepsin whole blood pharmacokinetics, non-compartmental; assay type: in vivo; conditions: human, iv, mean (SD); for Cmax: NCA, UPLC-MS/MS
Procedure: (§1) Sixteen samples were collected from each patient to quantify plitidepsin whole blood and BTZ plasma concentrations at baseline and at different times 1 week after the first infusion. In patients treated at the RD, 15 additional samples were taken 1 week after the second plitidepsin infusion.
(§2) Continuous variables were presented with summary statistics and categorical variables in frequency tables. Time‐to‐event variables were calculated using Kaplan–Meier approach. Binomial exact distribution was used to calculate 95% confidence intervals (95%CIs) for categorical variables. Individual PK parameters were tabulated. Statistical analyses were performed using SAS v.9.2, (SAS Institute Inc), and PK non‐compartmental analysis (NCA) was performed using Phoenix WinNonlin v.6.3.
Both drugs (plitidepsin and BTZ) were measured by validated liquid extraction methods followed by ultra-performance liquid chromatography tandem mass-spectrometry detection (Dynakin, Derio, Spain). The calibration range for plitidepsin and BTZ was 0.25-100 ng/mL, and 0.1-5 ng/mL, respectively. The reference for plitidepsin PK results was a population-PK model of plitidepsin (data from 303 patients treated in seven phase II studies and one phase III study), which was used to simulate exposure in whole blood after one 3-hour i.v. infusion of 5.0 mg/m² of plitidepsin in patients with similar characteristics compared to those treated in this study (unpublished data). The reference for BTZ PK results was a phase I study in patients with MM (see Moreau et al (25)).

[3] = patients with MM treated with plitidepsin in other trials; ref unpublished data; cited from earlier work
Text: The plitidepsin concentrations found in this study fitted within the 90% prediction interval simulated for patients with MM, although most were above the 50th pe ...

[4] = test system: MM cell lines and primary MM cells; conditions: cited from earlier work
Text: The positive results observed with plitidepsin and BTZ against MM (both as single agents and in combination with DXM), their different mechanisms of action, and the potential synergism of the triple combination warranted the exploration of the efficacy of plitidepsin plus BTZ and DXM in a clinical trial in patients with relapsed and/or refractory MM.

[5] = BTZ plasma pharmacokinetics, non-compartmental; assay type: in vivo, human; conditions: mean (SD); for C max: NCA, UPLC-MS/MS
Procedure: as §1, §2
Both drugs (plitidepsin and BTZ) were measured by validated liquid extraction methods followed by ultra-performance liquid chromatography tandem mass-spectrometry detection (Dynakin, Derio, Spain). The calibration range for plitidepsin and BTZ was 0.25-100 ng/mL, and 0.1-5 ng/mL, respectively.

[6] = design: method as in Moreau et al[25]; conditions: BTZ 1.3 mg/m^2 subcutaneously, reference study in MM patients; mean (SD), n = 10; ref Moreau et al[25]; cited from earlier work
MM [7] = conditions: phase III VISTA trial; single-agent BTZ re-treatment; cited from earlier work
Text: The feasibility of re‐treating MM patients with single‐agent bortezomib (BTZ) was first confirmed in the phase III VISTA trial,[8] where 47% of patients pre‐treated with BTZ‐based regimens during earlier phases of the disease responded again to the drug alone. This was further supported by the results of the phase II RETRIEVE and SUMMIT trials and the phase III APEX trial.[9], [10], [11]

MM [8] = conditions: cited from earlier work
Text: Results of the VISTA trial were further supported by those of phase II trials: RETRIEVE (ORR: 40%) and SUMMIT (ORR: 35%, including minimal response while on BTZ treatment), and of the phase III APEX trial (crossover from DXM to BTZ), in which the overall and complete response rates with BTZ were 43% and 9%, respectively.[9], [10], [11]

[9] = Dose level 1 4.0/1.0/40.0, Day 1 of Cycle 1, NCA, n = 6
[10] = Dose level 2 4.0/1.3/40.0, Day 1 of Cycle 1, NCA, n = 3
[11] = Dose level 3 (RD cohort) 5.0/1.3/40.0, Day 1 of Cycle 1, NCA, n = 9
[12] = phase III APEX trial (crossover from DXM to BTZ)

Nc1cccc2c1C(=O)N(C1CCC(=O)NC1=O)C2=O (stereo not drawn) [pomalidomide]
Median DoR (MM [1]): 7.4 months

Cc1[nH]c2ccccc2c1CCNCc1ccc(/C=C/C(=O)NO)cc1 [panobinostat]
Median DoR (MM [1]): 6.0 months

CC[C@H](C)[C@H]1NC(=O)[C@@H](NC(=O)[C@@H](CC(C)C)N(C)C(=O)[C@@H]2CCCN2C(=O)C(C)=O)[C@@H](C)OC(=O)[C@H](Cc2ccc(OC)cc2)N(C)C(=O)[C@@H]2CCCN2C(=O)[C@H](CC(C)C)NC(=O)[C@@H](C)C(=O)[C@H](C(C)C)OC(=O)C[C@@H]1O [Plitidepsin, plitidepsin] (Pyruvoyl-P[dNMeL]T[X1]LP[NMeY](Me); ester 3-C (inferred); N-terminus assumed)
Cmax ([2]; Dose level 1 4.0/1.0/40.0, Day 1 of Cycle 1, 3-h i.v. infusion, n = 5): 83.8 ng/mL
AUC(0-inf) ([2]; Dose level 1 4.0/1.0/40.0, Day 1 of Cycle 1, NCA, n = 5, read-out: AUC (time zero to infinity)): 1260 ng·h/mL
clearance ([2]; Dose level 1 4.0/1.0/40.0, Day 1 of Cycle 1, NCA, n = 5, read-out: CL (total clearance) (converted)): 94.5 mL/min
half-life ([2]; Dose level 1 4.0/1.0/40.0, Day 1 of Cycle 1, NCA, n = 5, read-out: HL (terminal half-life) (converted)): 40.1 h
Vd ([2]; Dose level 1 4.0/1.0/40.0, Day 1 of Cycle 1, NCA, n = 5, read-out: V ss (volume of distribution at steady-state)): 169 L
Vd ([2]; Dose level 1 4.0/1.0/40.0, Day 1 of Cycle 1, NCA, n = 5, read-out: V z (apparent volume of distribution during terminal phase)): 185 L
Cmax ([2]; Dose level 2 4.0/1.3/40.0, Day 1 of Cycle 1, 3-h i.v. infusion, n = 3): 117 ng/mL
AUC(0-inf) ([2]; Dose level 2 4.0/1.3/40.0, Day 1 of Cycle 1, NCA, n = 3, read-out: AUC (time zero to infinity)): 1420 ng·h/mL
clearance ([2]; Dose level 2 4.0/1.3/40.0, Day 1 of Cycle 1, NCA, n = 3, read-out: CL (total clearance) (converted)): 93.2 mL/min
half-life ([2]; Dose level 2 4.0/1.3/40.0, Day 1 of Cycle 1, NCA, n = 3, read-out: HL (terminal half-life) (converted)): 46.2 h
Vd ([2]; Dose level 2 4.0/1.3/40.0, Day 1 of Cycle 1, NCA, n = 3, read-out: V ss (volume of distribution at steady-state)): 192 L
Vd ([2]; Dose level 2 4.0/1.3/40.0, Day 1 of Cycle 1, NCA, n = 3, read-out: V z (apparent volume of distribution during terminal phase)): 394 L
Cmax ([2]; Dose level 3 (RD cohort) 5.0/1.3/40.0, Day 1 of Cycle 1, 3-h i.v. infusion, n = 9): 71.7 ng/mL
AUC(0-inf) ([2]; Dose level 3 (RD cohort) 5.0/1.3/40.0, Day 1 of Cycle 1, NCA, n = 9, read-out: AUC (time zero to infinity)): 1060 ng·h/mL
clearance ([2]; Dose level 3 (RD cohort) 5.0/1.3/40.0, Day 1 of Cycle 1, NCA, n = 9, read-out: CL (total clearance) (converted)): 157 mL/min
half-life ([2]; Dose level 3 (RD cohort) 5.0/1.3/40.0, Day 1 of Cycle 1, NCA, n = 9, read-out: HL (terminal half-life) (converted)): 44.6 h
Vd ([2]; Dose level 3 (RD cohort) 5.0/1.3/40.0, Day 1 of Cycle 1, NCA, n = 9, read-out: V ss (volume of distribution at steady-state)): 341 L
Vd ([2]; Dose level 3 (RD cohort) 5.0/1.3/40.0, Day 1 of Cycle 1, NCA, n = 9, read-out: V z (apparent volume of distribution during terminal phase)): 671 L
Median CL [3]: 4.4 L/h
Median peripheral volume [3]: 513 L
In vitro activity of the combination of plitidepsin with BTZ or DXM [4]: synergistic activity

elotuzumab
Median DoR (MM [1]): 11.4 months

Nc1cccc2c1CN(C1CCC(=O)NC1=O)C2=O (stereo not drawn) [lenalidomide]
Median DoR (MM [1]): 8.7 months

CC(C)C[C@H](NC(=O)[C@H](Cc1ccccc1)NC(=O)c1cnccn1)B(O)O [BTZ, bortezomib]
AUC (time zero to infinity) [5, 9]: 77.7 (17.9) h*μg/L
CL/F (total clearance after extravascular administration) [5, 9]: 23.4 (6.79) L/h
HL (terminal half-life) [5, 9]: 39.1 (9.22) h
V z /F (apparent volume of distribution during terminal phase after extravascular administration) [5, 9]: 1308 (431) L
C max ([5]; Dose level 1 4.0/1.0/40.0, Day 1 of Cycle 1, subcutaneous bolus, n = 6): 11.0 (7.71) μg/L
AUC (time zero to infinity) [5, 10]: 134 (46.8) h*μg/L
CL/F (total clearance after extravascular administration) [5, 10]: 17.9 (6.03) L/h
HL (terminal half-life) [5, 10]: 51.5 (41.4) h
V z /F (apparent volume of distribution during terminal phase after extravascular administration) [5, 10]: 1208 (52.4) L
C max ([5]; Dose level 2 4.0/1.3/40.0, Day 1 of Cycle 1, subcutaneous bolus, n = 3): 16.9 (4.21) μg/L
AUC (time zero to infinity) [5, 11]: 138 (88.6) h*μg/L
CL/F (total clearance after extravascular administration) [5, 11]: 24.9 (19.2) L/h
HL (terminal half-life) [5, 11]: 49.0 (17.8) h
V z /F (apparent volume of distribution during terminal phase after extravascular administration) [5, 11]: 1658 (1457) L
C max ([5]; Dose level 3 (RD cohort) 5.0/1.3/40.0, Day 1 of Cycle 1, subcutaneous bolus, n = 9): 17.0 (8.87) μg/L
AUC (time zero to infinity) [6]: 151 (53.5) h*μg/L
C max [6]: 16.5 μg/L and 16.5 (8.4) μg/L
CL/F (total clearance after extravascular administration) [6]: 16.6 L/h and 16.6 (5.8) L/h
HL (terminal half-life) [6]: 65.7 (46.5) h
V z /F (apparent volume of distribution during terminal phase after extravascular administration) [6]: 1330 L and 1330 (578) L
Patients pre-treated with BTZ-based regimens who responded again to the drug alone (MM [7]): 47%
ORR (MM [8]; phase II RETRIEVE trial): 40%
ORR (MM [8]; phase II SUMMIT trial, including minimal response while on BTZ treatment): 35%
Complete response rate (MM [8]; [12]): 9%
Overall response rate (MM [8]; [12]): 43%

CC1(C)CCC(CN2CCN(c3ccc(C(=O)NS(=O)(=O)c4ccc(NCC5CCOCC5)c([N+](=O)[O-])c4)c(Oc4cnc5[nH]ccc5c4)c3)CC2)=C(c2ccc(Cl)cc2)C1 [venetoclax]
Median DoR (MM [1]): 9.7 months
